Experimental data from PubChem BioAssay (NCI).
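Interpolation was linear, between the two tested concentrations surrounding the appropriate level; five concentrations were tested over 48 hours in 96-well plates. GI50: concentration for 50% inhibition of growth. TGI: concentration producing complete growth inhibition.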

How the values were obtained:
Assay in all cases: growth of human tumour cells (NCI), 48 h
M14 melanoma = tested on: M14 melanoma
HT29 colon = tested on: HT29 colon
SK-MEL-2 melanoma = tested on: SK-MEL-2 melanoma
SF-295 CNS = tested on: SF-295 CNS
OVCAR-8 ovarian = tested on: OVCAR-8 ovarian
MOLT-4 leukemia = tested on: MOLT-4 leukemia
SNB-75 CNS = tested on: SNB-75 CNS
A549 NSCLC = tested on: A549 NSCLC
PC-3 prostate = tested on: PC-3 prostate
MCF7 breast = tested on: MCF7 breast

SMILES	TGI (M14 melanoma) [µM]	TGI (HT29 colon) [µM]	TGI (SK-MEL-2 melanoma) [µM]	TGI (SF-295 CNS) [µM]	TGI (OVCAR-8 ovarian) [µM]	TGI (MOLT-4 leukemia) [µM]	TGI (SNB-75 CNS) [µM]	TGI (A549 NSCLC) [µM]	GI50 (M14 melanoma) [µM]	GI50 (PC-3 prostate) [µM]	TGI (PC-3 prostate) [µM]	GI50 (HT29 colon) [µM]	GI50 (SK-MEL-2 melanoma) [µM]	GI50 (SF-295 CNS) [µM]	GI50 (OVCAR-8 ovarian) [µM]	GI50 (MOLT-4 leukemia) [µM]	GI50 (MCF7 breast) [µM]	TGI (MCF7 breast) [µM]	GI50 (A549 NSCLC) [µM]	GI50 (SNB-75 CNS) [µM]
Cc1ccccc1NC(=O)c1[nH]c(=S)nc(N)c1-c1ccccc1C	> 100	> 100	> 100	> 100	> 100	> 100	76.1	> 100												
COc1ccc(/C=C(/C(=O)N2CCNCC2)c2cc(OC)c(OC)c(OC)c2)cc1O	> 100	> 100	> 100	60.3	> 100	> 100		> 100	3.83	2.72	> 100	7.75	3.51	5.36	5.64	3.94	1.34	> 100	6.63	
Cc1cc(Cl)ccc1N1C(=O)C(=O)C(c2nc3ccccc3s2)C(=O)C1=O	> 100	> 100	> 100	> 100	> 100	> 100	> 100	> 100												
Cc1ccc(S(=O)(=O)N2CCCCC2CCO)cc1 (centres undefined)	> 100	> 100	> 100	> 100	> 100	> 100	> 100	> 100												
CCN(CCCl)CCNc1c2ccccc2nc2ccc(OC)cc12	2.45	2.13	2.52	4	2.26	0.341	3.27	7.11										3.55		
O=C(OCCOCCOC(=O)c1c[nH]cc1-c1ccccc1)c1c[nH]cc1-c1ccccc1	28.2	35.2		35.7	84.7	49.1	36.7	66.4												
O=C(Nc1ccccc1Cl)c1ccc(NC2=C(Cl)C(=O)N(Cc3ccccc3)C2=O)cc1	> 100	> 100		> 100	36.9	50.8		> 100	79.4	40	> 100	44.8		26.6	18.7	19.1	17.2	36	60.4	
O=C1c2cccc3cccc(c23)C(=O)N1CCCCOc1ccc(-c2nc3ccc(N4CCOCC4)cc3[nH]2)cc1	7.55	> 35.3	53.6		> 75.1	> 100		> 84.4	2.88	3.16	23.6	2.23	15.7	1.63	6.21	2.95	2.92	12.8	3.77	
CC(=O)O[C@H]1CC[C@@]2(C)C(=CC[C@@H]3C2CC[C@]2(C)Nc4oncc4CC32)C1 (some centres undefined)	> 100	> 100	> 100	> 100	> 100	28.9	> 100	83.6												
CN(C)/[N+]([O-])=N/Oc1cc(Nc2ccc(C(=O)O)cc2)c([N+](=O)[O-])cc1[N+](=O)[O-]		> 100	39	34	52.1	> 100	52.1	> 100		26.5	53.1	44.2	17.1	16.9	22.1	53.3	25.2	69.7	75	25.7
NS(=O)(=O)c1ccc(-n2nc(-c3ccc(Cl)cc3)cc2C2=CC(=O)C=CC2=O)cc1	42.8		> 100	63.2	73.7	> 100		> 100	23	19.4	56.2		58	25.1	24.2	> 100	21.1	69.9	30	
COC(=O)C1Cc2c([nH]c3ccccc23)C=N1 (centres undefined)	> 100	> 100		> 100	> 100	> 100	> 100	> 100												
CC1=C(C)C(=O)C(C(C)C2=C(C)C(=O)C(C)=C(C)C2=O)=C(C)C1=O	> 100		> 100	> 100	> 100	27.6		> 100	53.7	20.9	> 100		33.8	15.1	33.3	8.88	29	> 100	51	
Cc1cccc(C)c1NC(=O)C(=O)C1C(=O)N(c2ccccc2)N=C1N (centres undefined)	> 100	> 100	> 100	> 100	> 100	> 100	> 100	> 100												
C/C=C/C1(NS(=O)(=O)c2ccc(C)cc2)CCC(C(C)(C)C)CC1 (centres undefined)	35.1	37.9	34.8	61.4	> 100	39.9	> 100	> 100												
CCCNc1nc(-c2ccc(OC)cc2)nc2ccccc12	24.7		> 100	32.2	95	> 100		49.6	10.6	14.9	46.5		35.2	15.7	25	46.4	19.5	> 100	11.1	
CC(CN(CP(=O)([O-])[O-])CP(=O)([O-])[O-])N(CP(=O)([O-])[O-])CP(=O)([O-])[O-].N[C@@H]1CCCC[C@@H]1N.[Pt+2] (centres undefined)	> 100	> 100	> 100	> 100	> 100	> 100	> 100	> 100	> 100			> 100	> 100	> 100	> 100	> 100			> 100	> 100
